Assay results published in patent US11873298B2, “Compounds and uses thereof” (JANSSEN PHARMACEUTICA NV, priority 2017, dated 2024).
Where “and” joins values, the source holds several entries; their conditions need not be identical. Equal values may be shown once.

Key:
Format in all cases: cell-based
Ole1 = molecular target: T1, Ole1 (Saccharomyces cerevisiae, UniProt P21147); assay: Growth inhibition of yeast strain expressing Ole1 as sole desaturase; details: yeast strain expressing Ole1 as sole desaturase
T1 construct: expressed in transfected cells; host or cells: S. cerevisiae ole1Δ strain (W303 pdr1Δ pdr3Δ background), plasmid pRS316 with TDH3 promoter and CYC1 terminator
T1 sequence (P21147 1-510): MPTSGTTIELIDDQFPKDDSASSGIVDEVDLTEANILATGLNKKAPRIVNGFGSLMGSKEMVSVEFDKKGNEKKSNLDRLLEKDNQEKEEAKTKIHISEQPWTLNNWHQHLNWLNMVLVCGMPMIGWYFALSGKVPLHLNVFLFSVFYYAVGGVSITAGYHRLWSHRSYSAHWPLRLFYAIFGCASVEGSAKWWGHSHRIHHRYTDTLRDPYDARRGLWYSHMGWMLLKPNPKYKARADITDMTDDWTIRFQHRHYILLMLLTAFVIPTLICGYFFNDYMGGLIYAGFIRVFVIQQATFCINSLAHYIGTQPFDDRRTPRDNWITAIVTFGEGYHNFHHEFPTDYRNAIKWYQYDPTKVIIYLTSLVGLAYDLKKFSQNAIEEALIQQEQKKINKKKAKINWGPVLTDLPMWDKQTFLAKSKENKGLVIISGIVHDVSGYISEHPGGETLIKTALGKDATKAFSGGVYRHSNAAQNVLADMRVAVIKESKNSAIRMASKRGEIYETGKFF
Method in brief: (§1)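 Yeast ole1Δ strain (W303 pdr1Δ pdr3Δ background) carrying plasmid-borne Ole1, SCD1 or SCD5 as sole desaturase was grown in uracil-lacking media, pre-cultured in raffinose for 6 h, then seeded in galactose medium with compound in DMSO. Growth was read as OD600 after 30° C. incubation: 24 h for Ole1, 40 h for SCD1/SCD5.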

SCD1 = molecular target: T2, SCD1 (Homo sapiens, UniProt O00767); assay: Growth inhibition of humanized yeast strain expressing SCD1 as sole desaturase; details: humanized yeast strain expressing SCD1
T2 construct: host or cells: S. cerevisiae ole1Δ strain (W303 pdr1Δ pdr3Δ background), plasmid pRS316 with TDH3 promoter and CYC1 terminator
T2 sequence (O00767 1-359): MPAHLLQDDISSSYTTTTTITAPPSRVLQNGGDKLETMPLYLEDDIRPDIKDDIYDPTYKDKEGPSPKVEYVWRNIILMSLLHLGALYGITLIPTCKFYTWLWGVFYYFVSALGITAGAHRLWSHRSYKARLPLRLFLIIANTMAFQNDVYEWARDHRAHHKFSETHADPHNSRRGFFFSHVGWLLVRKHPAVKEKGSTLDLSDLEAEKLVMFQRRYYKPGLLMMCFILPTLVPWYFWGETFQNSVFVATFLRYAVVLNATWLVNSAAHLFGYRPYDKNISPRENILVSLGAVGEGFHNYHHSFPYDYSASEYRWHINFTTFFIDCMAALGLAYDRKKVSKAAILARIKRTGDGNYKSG
Method in brief: as §1

SCD5 = molecular target: T3, SCD5 (Homo sapiens, UniProt Q86SK9); assay: Growth inhibition of humanized yeast strain expressing SCD5 as sole desaturase; details: humanized yeast strain expressing SCD5
T3 construct: host or cells: S. cerevisiae ole1Δ strain (W303 pdr1Δ pdr3Δ background), plasmid pRS316 with TDH3 promoter and CYC1 terminator
T3 sequence (Q86SK9 1-330): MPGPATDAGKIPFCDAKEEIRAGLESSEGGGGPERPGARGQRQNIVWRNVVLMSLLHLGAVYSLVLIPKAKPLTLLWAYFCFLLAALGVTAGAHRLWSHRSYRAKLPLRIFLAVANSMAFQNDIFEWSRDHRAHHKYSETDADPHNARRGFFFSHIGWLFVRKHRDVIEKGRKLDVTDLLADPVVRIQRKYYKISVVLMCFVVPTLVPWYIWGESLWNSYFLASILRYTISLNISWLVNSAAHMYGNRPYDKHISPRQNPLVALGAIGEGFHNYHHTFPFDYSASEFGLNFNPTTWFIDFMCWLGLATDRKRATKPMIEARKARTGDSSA
Method in brief: as §1

Structure (SMILES) | IC50 (Ole1) | OLE1 % Max Inhibition (Ole1) | SCD1 % Max Inhibition (SCD1) | IC50 (SCD5) | SCD5 % Max Inhibition (SCD5) | IC50 (SCD1)
Cc1nn(C)c2cc(-c3nc(C4CCN(C(=O)CNC(=O)c5ccccc5)CC4)no3)ccc12 [Compound 326] | > 45 µM | 7.5% | 77.1% | > 45 µM | 26.5% | 
Cc1nn(C)c2cc(-c3noc(C4CCN(C(=O)CNC(=O)c5cc(F)ccc5C(F)(F)F)CC4)n3)ccc12 [Compound 304] | > 45 µM | 14.7% | 74.9% | > 45 µM | 51.6% | 
CC(C)n1ncc2ccc(-c3noc(C4CCN(C(=O)OC(C)(C)C)CC4)n3)cc21 [Compound 265] | > 45 µM | 103.04% and 83.99% | 76.74% and 54.38% | > 45 µM | 10.96% and 3.97% | ≥ 45 µM
Cc1nn(C)c2cc(-c3noc(C4CCN(C(=O)CNC(=O)c5ccccc5C(F)(F)F)CC4)n3)ccc12 [Compound 271] | > 45 µM | 11.7% | 67.9% | > 45 µM | 53.6% | 
O=C(C1CC(=O)N(c2cccc(Cl)c2)C1)N1CCC(c2nc(-c3cnn(C4COC4)c3)no2)CC1 (stereo not shown) [Compound 340] | > 45 µM | 88.9% | 55.0% | > 45 µM | 65.9% | > 45 µM
Cc1nn(C)c2cc(-c3nsc(C4CCN(C(=O)CNC(=O)c5ccccn5)CC4)n3)ccc12 [Compound 232] | > 45 µM | 4.20% | 81.04% | 41.1 µM | 51.17% | > 45 µM
CCn1nc(C)c2ccc(-c3noc(C4CCN(C(=O)CNC(=O)c5ccccc5)CC4)n3)cc21 [Compound 299] | > 45 µM | 17.5% and 13.58% | 89.6% and 62.80% | > 45 µM | 30.1% and 22.61% | ≥ 45 µM
Cc1nn(C)c2cc(-c3noc(N4CCN(C(=O)c5cc(F)ccc5C(F)(F)F)CC4)n3)ccc12 [Compound 293] | 34.9 µM | 66.4% | 12.3% | > 45 µM | 11.9% | > 45 µM
Cc1nn(C)c2cc(-c3noc(C4CCN(C(=O)c5ccccc5Cl)CC4)n3)ccc12 [Compound 288] | > 45 µM | 7.14% | 8.71% | > 45 µM | 7.52% | 
Cc1nn(C)c2cc(-c3noc(C4CCN(C(=O)CNC(=O)c5ccsc5)CC4)n3)ccc12 [Compound 222] | > 45 µM | 3.59% | 40.42% | > 45 µM | 1.92% | > 45 µM
CC(C)c1ccc(C(=O)N2CCC(c3nc(-c4ccc5cnn(C)c5c4)no3)CC2)cc1 [Compound 204] | > 45 µM | 79.30% and 50.38% | 30.36% and 21.99% | > 45 µM | 0.25% and 2.95% | > 45 µM
CCOc1ccc(-c2noc(C3CCN(C(=O)C4CN(C(=O)c5ccccc5)C4)CC3)n2)cc1OC [Compound 237] | > 45 µM | 18.53% | 71.76% | 32.6 µM | 45.34% | > 45 µM
CCNCc1nc(-c2ccc3c(c2)N(CC)C(=O)CO3)no1 [Compound 493] | > 45 µM | 91.16% | 68.84% | 30.2 µM | 60.28% | 
Cn1ncc2ccc(-c3noc(C4CCN(C(=O)c5ccnc(-c6ccccc6)c5)CC4)n3)cc21 [Compound 208] | > 45 µM | 96.63% | 14.04% | > 45 µM | 5.68% | > 45 µM
CCN1C(=O)COc2ccc(-c3noc(C4(c5ccc(OC)cc5)CC4)n3)cc21 [Compound 491] | > 45 µM | 107.15% | 118.81% | > 45 µM | 83.61% | 
CCOc1ccc(-c2noc(N3CCC(C(=O)N4CCO[C@@H](c5ccccc5)C4)CC3)n2)cc1OC [Compound 217] | > 45 µM | 10.39% | 57.90% | > 45 µM | 12.62% | 36.9 µM
CCOc1ccc(-c2noc(C3CCN(C(=O)C4CN(c5ccccc5)C(=O)CO4)CC3)n2)cc1OC (stereo not shown) [Compound 235] | > 45 µM | 84.04% | 74.46% | > 45 µM | 87.47% | > 45 µM
Cc1nn(C)c2cc(-c3noc(C4CCN(C(=O)CNC(=O)c5ccc(C(F)(F)F)cc5)CC4)n3)ccc12 [Compound 317] | > 45 µM | 8.3% | 30.0% | > 45 µM | 20.6% | 
Cc1nn(C)c2cc(-c3noc(N4CCN(C(=O)c5ccccc5Cl)CC4)n3)ccc12 [Compound 262] | > 45 µM | 23.99% | 41.84% | > 45 µM | 10.38% | 
Cc1cc(N2CC(C(=O)N3CCC(c4nc(-c5ccc6c(C)nn(C)c6c5)no4)CC3)CC2=O)ccn1 (stereo not shown) [Compound 183] | > 45 µM | 101.71% | 101.67% | > 45 µM | 84.88% | > 45 µM
CCN1C(=O)COc2ccc(-c3nc(C(C)c4ccccc4)no3)cc21 (stereo not shown) [Compound 160] | 36.2 µM | 71.55% | 63.44% | 24.3 µM | 28.51% | 40.7 µM
O=C(C1CCN(c2nc(-c3ccccc3)no2)CC1)N1CCOCC1 [Compound 5] | > 45 µM |  |  | 24.5 µM |  | > 45 µM
